Measurements reported in article PMC5679212 (The Biochemical journal, 2014).

Tests used:
Type in all cases: binding
[1] = target: ULK4 (unc-51 like kinase 4) (Homo sapiens, UniProt Q96C45); assay: thermal-shift assay
[2] = target: T1, EphB6 (Ephrin type-B receptor 6) (Homo sapiens, UniProt O15197); assay: thermal-shift assay
T1 sequence (O15197 670-919 limits assumed): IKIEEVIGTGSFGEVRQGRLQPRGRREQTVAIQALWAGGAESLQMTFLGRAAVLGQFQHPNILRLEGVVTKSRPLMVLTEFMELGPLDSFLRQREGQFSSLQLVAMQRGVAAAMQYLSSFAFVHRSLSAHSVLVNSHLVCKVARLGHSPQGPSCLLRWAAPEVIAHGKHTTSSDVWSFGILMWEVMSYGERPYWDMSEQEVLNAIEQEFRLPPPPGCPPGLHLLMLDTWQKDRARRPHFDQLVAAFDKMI

[3] = target: T2, MLKL (mixed lineage kinase domain-like) (Homo sapiens, UniProt Q8NB16); assay: ITC and thermal-shift assay
T2 sequence (Q8NB16 190-471 limits assumed): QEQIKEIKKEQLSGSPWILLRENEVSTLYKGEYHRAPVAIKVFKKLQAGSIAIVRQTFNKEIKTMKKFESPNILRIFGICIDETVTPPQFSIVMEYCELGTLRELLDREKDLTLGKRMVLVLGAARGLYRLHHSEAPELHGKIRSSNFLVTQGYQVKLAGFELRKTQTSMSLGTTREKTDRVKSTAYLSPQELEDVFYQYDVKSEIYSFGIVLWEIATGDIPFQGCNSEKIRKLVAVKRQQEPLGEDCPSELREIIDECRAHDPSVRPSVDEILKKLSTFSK

[4] = target: TYK2(JH2) (Homo sapiens, UniProt P29597); assay: thermal-shift assay
TYK2(JH2), sequence (P29597 575-869): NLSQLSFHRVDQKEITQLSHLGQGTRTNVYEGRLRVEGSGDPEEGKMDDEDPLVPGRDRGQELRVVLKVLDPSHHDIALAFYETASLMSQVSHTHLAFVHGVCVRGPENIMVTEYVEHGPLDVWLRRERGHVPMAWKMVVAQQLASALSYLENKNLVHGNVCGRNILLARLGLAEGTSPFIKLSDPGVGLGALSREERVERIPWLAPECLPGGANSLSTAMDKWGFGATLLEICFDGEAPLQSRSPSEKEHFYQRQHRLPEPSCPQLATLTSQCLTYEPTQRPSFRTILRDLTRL

ULK4 (unc-51 like kinase 4), sequence (Q96C45 1-288 limits assumed): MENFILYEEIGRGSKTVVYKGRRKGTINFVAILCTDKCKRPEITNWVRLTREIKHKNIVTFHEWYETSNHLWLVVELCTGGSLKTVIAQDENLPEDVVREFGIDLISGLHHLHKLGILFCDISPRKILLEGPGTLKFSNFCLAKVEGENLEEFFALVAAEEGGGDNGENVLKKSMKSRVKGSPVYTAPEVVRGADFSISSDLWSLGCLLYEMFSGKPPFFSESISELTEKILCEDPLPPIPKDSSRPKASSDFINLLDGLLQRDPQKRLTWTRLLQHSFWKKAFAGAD

| SMILES | thermal-shift assay (0.2 mM nucleotide) [1] | thermal-shift assay (0.2 mM nucleotide) [2] | Kd [3] | thermal-shift assay (40 μM ligand, ΔTm ≥3 °C) [4] |
| --- | --- | --- | --- | --- |
| Nc1ncnc2c1ncn2[C@@H]1O[C@H](COP(=O)(O)OP(=O)(O)OP(=O)(O)O)[C@@H](O)[C@H]1O [ATP] | we observed that ATP binding was still accomplished by EphB6 and ULK4 (Figures 3C and 3E) | we observed that ATP binding was still accomplished by EphB6 and ULK4 (Figures 3C and 3E) | ~15 µM | – |
| NCc1ccc(Nc2ncc(F)c(Nc3ccccc3)n2)cc1 [DAP, N′2′-(4-aminomethyl-phenyl)-5-fluoro-N′4′-phenyl-pyrimidine-2,4-diamine] | – | – | – | consistent with the binding to the small-molecule kinase inhibitors DAP and VI16832 observed in the present study (Figure 2E) |
